Data: article PMC8151276, “An Integrated Approach toward NanoBRET Tracers for Analysis of GPCR Ligand Engagement” (Molecules, 2021)

How the values were obtained:
Type in all cases: binding
CCKBR = target: T1, CCKBR (Homo sapiens, UniProt P32239); test: NanoBRET screen HiBiT-CCKBR in HEK293; conditions: CCKBR
T1 construct: purchased Promega (in-house HiBiT-GPCR construct library, NanoBRET)
T1 sequence (P32239 1-447): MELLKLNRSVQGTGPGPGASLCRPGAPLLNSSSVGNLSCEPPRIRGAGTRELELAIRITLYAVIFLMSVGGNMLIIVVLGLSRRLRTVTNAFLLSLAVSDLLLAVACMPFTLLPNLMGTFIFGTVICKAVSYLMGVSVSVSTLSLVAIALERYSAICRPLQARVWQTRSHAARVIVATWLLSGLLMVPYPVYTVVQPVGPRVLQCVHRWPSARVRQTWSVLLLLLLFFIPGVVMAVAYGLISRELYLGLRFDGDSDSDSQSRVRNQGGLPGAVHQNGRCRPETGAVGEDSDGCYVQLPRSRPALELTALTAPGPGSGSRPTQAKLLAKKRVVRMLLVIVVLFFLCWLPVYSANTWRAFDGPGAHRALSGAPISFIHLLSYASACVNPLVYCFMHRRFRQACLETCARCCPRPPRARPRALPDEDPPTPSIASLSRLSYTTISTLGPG
Method: (§1) Each tracer candidate was screened across the entire library of HiBiT-GPCR constructs using NanoBRET as the detection modality. As depicted in Figure 4A, the specificity of interactions was evaluated through decrease in BRET due to competitive displacement of a bound tracer by excess parental compound. Each tracer was analyzed for binding to each HiBiT-GPCR fusion in the absence and in the presence of competing parental compound. Briefly, HEK293 cells were transfected with HiBiT-GPCR constructs diluted into promoterless DNA to reduce expression and maximize translocation to the cell surface. Each tracer candidate was then screened at concentrations of 1 μM and 0.1 μM across cells expressing these fusions. Cells were treated for 1.5 h with tracer either alone or in the presence of 20 μM competing parental compound (i.e., control). BRET was measured upon addition of purified LgBiT and subsequent complementation with HiBiT genetically fused to a GPCR. The specificity of interactions was assessed through a decrease in BRET signal due to competitive displacement of the bound tracer. To further gauge the robustness of these interactions, the fold response over the control (i.e., BRETtracer/BRETcontrol) was calculated. We chose a 1.5-fold response, which translates to ≥7-fold signal over noise as the minimal threshold required to score an interaction as positive. […]. Below we highlight the screening results obtained for our exemplary fluorescent tracers based on Clozapine, Amitriptyline and AZD1283.
(§2) HiBiT-GPCR DNA constructs were diluted in 10 mM Tris pH 8 to a final concentration of 0.01 μg/μL, arrayed in 96-well plates and stored at −20 °C. For transfection, HEK293 cells were suspended in Opti-MEM (without phenol red) supplemented with 2% fetal bovine serum (Seradigm) and 100 units/mL penicillin–streptomycin (Gibco) at a final concentration of 220,000 cells/mL and dispensed into white 96-well plates at 90 μL/well. Subsequent transfections and screens were carried using an Agilent Bravo Automated Liquid Handling Platform. First, the 96-well HiBiT DNA arrays were diluted 25-fold in Opti-MEM (without serum or phenol red) to a final concentration of 0.0004 μg/μL and 20 μL of the diluted DNAs were transferred into new 96-well plates. Next, promoterless carrier DNA (1 μg/μL) was diluted 25-fold (0.04 μg/μL) and then dispensed into the diluted arrays at 20 μL/well. Following brief mixing, Viafect transfection reagent (Promega) diluted 16-fold into Opti-MEM was dispensed into the plates at 40 μL/well. After mixing by pipetting, plates were incubated for 10 min on the pipetting station deck. The DNA-transfection reagent complexes were then added to plates containing cells. To facilitate the screen, 10 μL of DNA-transfection reagent complexes were added in duplicates to the top 4 and bottom 4 rows, resulting in two identical 48-well arrays per plate. Plates with transfected cells were incubated for 18–20 h at 37 °C/5% CO2. A screen of each tracer across the entire library using two different concentrations requires duplicate plates of transfected cells. Depending on the number of tracers being screened, transfections can be scaled up using the same ratios. The next day, for each tracer, four 20× screening solutions in tracer dilution buffer (Promega) were prepared: two duplicates at final concentration of 20 μM and two duplicates at a final concentration of 2 μM. A competing unmodified compound was added to one of each duplicate at a final concentration of 400 μM. The four resulting solutions were diluted 4-fold in Opti-MEM without serum or phenol red to generate 5× solutions (5 µM and 0.5 µM tracer +/− 100 μM competing compound). To screen the library, a BioTek MultiFlo FX liquid dispenser was used to dispense 22.5 µL of tracer solution to the top 4 rows and 22.5 µL tracer + competing compound solution to the 4 bottom rows. Plates were briefly mixed on an orbital shaker and incubated for 1.5 h at room temperature. […]

C5AR1 = target: T2, C5AR1 (Homo sapiens, UniProt P21730); test: NanoBRET screen HiBiT-C5AR1 in HEK293; conditions: C5AR1
T2 construct: purchased Promega (in-house HiBiT-GPCR construct library, NanoBRET)
T2 sequence (P21730 1-350): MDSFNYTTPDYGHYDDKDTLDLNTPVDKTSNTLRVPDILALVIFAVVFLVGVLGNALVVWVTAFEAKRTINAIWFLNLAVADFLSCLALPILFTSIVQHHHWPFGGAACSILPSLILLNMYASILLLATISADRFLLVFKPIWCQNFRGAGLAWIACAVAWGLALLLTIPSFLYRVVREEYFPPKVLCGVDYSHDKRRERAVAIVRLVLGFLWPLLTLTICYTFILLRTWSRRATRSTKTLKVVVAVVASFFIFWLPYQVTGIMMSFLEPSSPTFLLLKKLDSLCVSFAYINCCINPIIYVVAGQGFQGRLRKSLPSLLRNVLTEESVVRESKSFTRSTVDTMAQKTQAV
Method: as §1, §2

P2RY4 = target: T3, P2RY4 (Homo sapiens, UniProt P51582); test: NanoBRET screen HiBiT-P2RY4 in HEK293; conditions: P2RY4
T3 construct: purchased Promega (in-house HiBiT-GPCR construct library, NanoBRET)
Method: as §1, §2

P2RY12 = target: T4, P2RY12 (Homo sapiens, UniProt Q9H244); test: NanoBRET screen HiBiT-P2RY12 in HEK293; conditions: P2RY12
T4 construct: purchased Promega (in-house HiBiT-GPCR construct library, NanoBRET)
Method: as §1, §2

PTGER2 = target: T5, PTGER2 (Homo sapiens, UniProt P43116); test: NanoBRET screen HiBiT-PTGER2 in HEK293; conditions: PTGER2
T5 construct: purchased Promega (in-house HiBiT-GPCR construct library, NanoBRET)
Method: as §1, §2

PTGIR = target: T6, PTGIR (Homo sapiens, UniProt P43119); test: NanoBRET screen HiBiT-PTGIR in HEK293; conditions: PTGIR
T6 construct: purchased Promega (in-house HiBiT-GPCR construct library, NanoBRET)
Method: as §1, §2

LHCGR = target: T7, LHCGR (Homo sapiens, UniProt P22888); test: NanoBRET screen HiBiT-LHCGR in HEK293; conditions: LHCGR
T7 construct: purchased Promega (in-house HiBiT-GPCR construct library, NanoBRET)
Method: as §1, §2

T3 sequence (P51582 whole entry): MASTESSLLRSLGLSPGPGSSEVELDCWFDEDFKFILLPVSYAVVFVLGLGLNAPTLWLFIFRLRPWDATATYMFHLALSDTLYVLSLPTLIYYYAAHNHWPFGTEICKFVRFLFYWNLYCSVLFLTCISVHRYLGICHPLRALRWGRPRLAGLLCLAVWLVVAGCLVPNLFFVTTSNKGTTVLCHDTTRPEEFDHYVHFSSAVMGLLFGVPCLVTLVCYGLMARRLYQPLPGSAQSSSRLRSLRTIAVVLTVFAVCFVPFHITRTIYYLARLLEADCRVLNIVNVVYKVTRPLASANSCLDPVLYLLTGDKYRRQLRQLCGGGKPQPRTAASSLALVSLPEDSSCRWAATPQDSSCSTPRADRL
T4 sequence (Q9H244 whole entry, one chain of several): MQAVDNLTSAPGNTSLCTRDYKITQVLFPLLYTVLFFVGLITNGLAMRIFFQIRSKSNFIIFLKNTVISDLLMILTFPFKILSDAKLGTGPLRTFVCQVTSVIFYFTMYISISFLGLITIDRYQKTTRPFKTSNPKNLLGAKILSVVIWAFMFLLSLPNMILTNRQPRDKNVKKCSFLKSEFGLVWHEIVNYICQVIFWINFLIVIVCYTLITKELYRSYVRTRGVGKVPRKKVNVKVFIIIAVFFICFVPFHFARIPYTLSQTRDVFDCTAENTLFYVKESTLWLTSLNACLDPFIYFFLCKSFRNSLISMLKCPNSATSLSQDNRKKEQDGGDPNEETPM
T6 sequence (P43119 whole entry): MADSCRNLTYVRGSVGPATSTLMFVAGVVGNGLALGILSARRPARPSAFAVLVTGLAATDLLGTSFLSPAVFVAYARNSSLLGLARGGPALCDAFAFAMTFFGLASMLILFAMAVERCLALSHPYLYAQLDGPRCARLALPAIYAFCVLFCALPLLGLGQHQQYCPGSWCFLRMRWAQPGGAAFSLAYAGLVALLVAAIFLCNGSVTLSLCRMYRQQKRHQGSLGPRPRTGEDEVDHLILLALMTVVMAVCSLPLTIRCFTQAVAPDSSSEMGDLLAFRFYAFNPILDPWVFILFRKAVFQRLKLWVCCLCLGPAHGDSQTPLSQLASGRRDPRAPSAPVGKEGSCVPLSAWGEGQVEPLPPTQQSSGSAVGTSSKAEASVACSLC
T5 sequence (P43116 whole entry): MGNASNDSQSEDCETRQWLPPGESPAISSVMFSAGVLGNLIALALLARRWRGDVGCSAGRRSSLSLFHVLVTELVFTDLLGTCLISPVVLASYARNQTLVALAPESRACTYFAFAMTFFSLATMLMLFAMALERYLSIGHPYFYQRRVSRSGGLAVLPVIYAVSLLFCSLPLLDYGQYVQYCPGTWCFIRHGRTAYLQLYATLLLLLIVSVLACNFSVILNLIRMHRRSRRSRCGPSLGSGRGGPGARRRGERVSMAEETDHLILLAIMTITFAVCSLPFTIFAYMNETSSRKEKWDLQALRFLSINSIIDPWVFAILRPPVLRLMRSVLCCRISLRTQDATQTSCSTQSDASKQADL
T7 sequence (P22888 27-699): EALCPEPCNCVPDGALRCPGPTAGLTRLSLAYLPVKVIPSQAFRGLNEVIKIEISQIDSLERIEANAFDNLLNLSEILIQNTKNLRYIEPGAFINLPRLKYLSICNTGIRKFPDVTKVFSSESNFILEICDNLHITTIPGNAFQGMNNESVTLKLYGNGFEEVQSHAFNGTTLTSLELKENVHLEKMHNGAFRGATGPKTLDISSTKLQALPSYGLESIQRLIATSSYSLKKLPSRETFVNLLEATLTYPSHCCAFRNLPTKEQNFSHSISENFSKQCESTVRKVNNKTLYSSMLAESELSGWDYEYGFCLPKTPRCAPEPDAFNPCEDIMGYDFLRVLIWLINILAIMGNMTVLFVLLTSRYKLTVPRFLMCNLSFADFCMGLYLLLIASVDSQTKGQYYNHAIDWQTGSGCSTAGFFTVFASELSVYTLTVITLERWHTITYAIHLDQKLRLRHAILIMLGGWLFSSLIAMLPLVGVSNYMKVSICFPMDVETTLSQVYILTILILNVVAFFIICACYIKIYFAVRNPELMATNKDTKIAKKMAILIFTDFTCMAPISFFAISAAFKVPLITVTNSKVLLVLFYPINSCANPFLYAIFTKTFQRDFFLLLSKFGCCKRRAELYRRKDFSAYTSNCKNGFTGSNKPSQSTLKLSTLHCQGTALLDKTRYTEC

Row | SMILES | NanoBRET Fold Response (CCKBR; tracer 0.1μM) | NanoBRET Fold Response (CCKBR; tracer 1μM) | NanoBRET Fold Response (C5AR1; tracer 0.1μM) | NanoBRET Fold Response (C5AR1; tracer 1μM) | NanoBRET Fold Response (P2RY4; tracer 0.1μM) | NanoBRET Fold Response (P2RY4; tracer 1μM) | NanoBRET Fold Response (P2RY12; tracer 0.1μM) | NanoBRET Fold Response (P2RY12; tracer 1μM) | NanoBRET Fold Response (PTGER2; tracer 0.1μM) | NanoBRET Fold Response (PTGER2; tracer 1μM) | NanoBRET Fold Response (PTGIR; tracer 0.1μM) | NanoBRET Fold Response (PTGIR; tracer 1μM) | NanoBRET Fold Response (LHCGR; tracer 0.1μM) | NanoBRET Fold Response (LHCGR; tracer 1μM) | also measured
1 | O=C(CCc1ccc2n1[B-](F)(F)[N+]1=C(c3ccc[nH]3)C=CC1=C2)NCc1ccc(C(=O)NCCOCCOCCNCC(O)COc2cccc3ccccc23)cc1 (stereo not shown) [Propranolol-3-NB590] | – | – | – | – | – | – | – | – | – | – | – | – | – | – | NanoBRET Fold Response (CCKBR; 0.1μM): 1.05; NanoBRET Fold Response (CCKBR; 1μM): 0.91; NanoBRET Fold Response (C5AR1; 0.1μM): 1.05; NanoBRET Fold Response (C5AR1; 1μM): 1.03; NanoBRET Fold Response (P2RY4; 0.1μM): 1.03; NanoBRET Fold Response (P2RY4; 1μM): 0.92; NanoBRET Fold Response (P2RY12; 0.1μM): 1.02; NanoBRET Fold Response (P2RY12; 1μM): 0.94; NanoBRET Fold Response (PTGER2; 0.1μM): 1.00; NanoBRET Fold Response (PTGER2; 1μM): 1.02; NanoBRET Fold Response (PTGIR; 0.1μM): 1.05; NanoBRET Fold Response (PTGIR; 1μM): 0.97; NanoBRET Fold Response (LHCGR; 0.1μM): 1.04; NanoBRET Fold Response (LHCGR; 1μM): 1.00
2 | CN1CCN(C2=Nc3cc(Cl)ccc3N(CC(=O)NCCOCCOCCOCCOCCNC(=O)CCc3ccc4n3[B-](F)(F)[N+]3=C(c5ccc[nH]5)C=CC3=C4)c3ccccc32)CC1 [Clozapine-c-2-NB590] | – | – | – | – | – | – | – | – | – | – | – | – | – | – | NanoBRET Fold Response (CCKBR; 0.1μM tracer): 1.04; NanoBRET Fold Response (CCKBR; 1μM tracer): 1.01; NanoBRET Fold Response (C5AR1; 0.1μM tracer): 1.00; NanoBRET Fold Response (C5AR1; 1μM tracer): 1.05; NanoBRET Fold Response (P2RY4; 0.1μM tracer): 1.00; NanoBRET Fold Response (P2RY4; 1μM tracer): 0.95; NanoBRET Fold Response (P2RY12; 0.1μM tracer): 0.99; NanoBRET Fold Response (P2RY12; 1μM tracer): 0.95; NanoBRET Fold Response (PTGER2; 0.1μM tracer): 0.98; NanoBRET Fold Response (PTGER2; 1μM tracer): 1.09; NanoBRET Fold Response (PTGIR; 0.1μM tracer): 0.96; NanoBRET Fold Response (PTGIR; 1μM tracer): 1.09; NanoBRET Fold Response (LHCGR; 0.1μM tracer): 1.05; NanoBRET Fold Response (LHCGR; 1μM tracer): 1.07
3 | O=C(CCc1ccc2n1[B-](F)(F)[N+]1=C(c3ccc[nH]3)C=CC1=C2)NCc1ccc(C(=O)NCCOCCC(=O)N[C@@H]2CC[C@@]3(O)[C@H]4Cc5ccc(O)c6c5[C@@]3(CCN4CC3CC3)[C@H]2O6)cc1 [Naltrexone-3-NB590] | 0.79 | 0.93 | 0.94 | 0.93 | 1.32 | 0.88 | 1.30 | 0.88 | 1.04 | 1.00 | 0.98 | 1.17 | 0.89 | 1.12 | –
4 | CC(C)N(CC[C@H](c1ccccc1)c1cc(CCNC(=O)CCOCCOCCOCCOCCNC(=O)CCc2ccc3n2[B-](F)(F)[N+]2=C(c4ccc[nH]4)C=CC2=C3)ccc1O)C(C)C [Tolterodine-2-NB590] | 0.97 | 1.07 | 0.95 | 1.08 | 1.08 | 0.94 | 0.93 | 0.95 | 1.00 | 1.01 | 1.07 | 1.12 | 1.08 | 1.02 | –
5 | Cc1nc2n(c(=O)c1CCN1CCC(c3noc4cc(F)ccc34)CC1)CCCC2OC(=O)NCCOCCOCCOCCOCCNC(=O)CCc1ccc2n1[B-](F)(F)[N+]1=C(c3ccc[nH]3)C=CC1=C2 (stereo not shown) [Risperidone-2-NB590] | 1.01 | 0.81 | 0.95 | 0.99 | 1.08 | 0.90 | 1.05 | 0.95 | 1.01 | 1.05 | 1.02 | 1.01 | 0.99 | 1.04 | –
